Laboratory results as given in PMC3227566, “Targeting Acetylcholinesterase: Identification of Chemical Leads by High Throughput Screening, Structure Determination and Molecular Modeling” (PLoS ONE, 2011).
Read-outs that look alike come from different tables or passages of the source.

Biological target: T1, recombinant hAChE (Homo sapiens, UniProt P22303)
T1 construct: made in house
Test: biochemical
Source text: A chemical library consisting of 17 500 substances was screened using the colorimetric Ellman assay and recombinant hAChE. The hydrolysis of acetylthiocholine iodide was monitored and the average slope of the positive controls was set to 100% activity. […] Molecules in Set 1 were selected to represent the chemical space according to a Principal Component Analysis (PCA) of the hits' structural and physicochemical features (see section Chemical space of AChE inhibitors, below).
The screening was performed at the Umeå Small Molecule Screening Facility currently incorporated in the screening platform of the Laboratories for Chemical Biology, Umeå (LCBU). Recombinant hAChE was expressed and purified according to previously described methods, [46]. The enzymatic activity was measured using the Ellman assay adapted to a 96-well format. The final assay volume was 200 µL and all measurements were performed in 0.2 mM 5,5′-Dithiobis(2-nitrobenzoic acid) and 1 mM acethylthiocholine iodide in 0.1 M phosphate buffer pH 8.0. […] Stock solutions were prepared in DMSO and transferred to the assay plate using a Biomek NC robotic system (BeckanCoulter). The enzymatic reaction was monitored for 120 seconds using an Infinite M200 plate-reader (Tekan) at a ligand concentration of 50 µM and temperature of 20°C. Each plate contained 80 samples, 14 positive controls and two negative controls. […] Substances reducing the activity by at least 70% were scored as hits. […] For each inhibitor, the enzymatic activity was determined at eight concentrations selected to produce a dose-response curve that was subsequently analyzed using Prism.

[1] = hits with determined crystal structures, mean ± standard deviation of 2–5 determinations, read-out: IC50

T1 sequence (P22303 32-614): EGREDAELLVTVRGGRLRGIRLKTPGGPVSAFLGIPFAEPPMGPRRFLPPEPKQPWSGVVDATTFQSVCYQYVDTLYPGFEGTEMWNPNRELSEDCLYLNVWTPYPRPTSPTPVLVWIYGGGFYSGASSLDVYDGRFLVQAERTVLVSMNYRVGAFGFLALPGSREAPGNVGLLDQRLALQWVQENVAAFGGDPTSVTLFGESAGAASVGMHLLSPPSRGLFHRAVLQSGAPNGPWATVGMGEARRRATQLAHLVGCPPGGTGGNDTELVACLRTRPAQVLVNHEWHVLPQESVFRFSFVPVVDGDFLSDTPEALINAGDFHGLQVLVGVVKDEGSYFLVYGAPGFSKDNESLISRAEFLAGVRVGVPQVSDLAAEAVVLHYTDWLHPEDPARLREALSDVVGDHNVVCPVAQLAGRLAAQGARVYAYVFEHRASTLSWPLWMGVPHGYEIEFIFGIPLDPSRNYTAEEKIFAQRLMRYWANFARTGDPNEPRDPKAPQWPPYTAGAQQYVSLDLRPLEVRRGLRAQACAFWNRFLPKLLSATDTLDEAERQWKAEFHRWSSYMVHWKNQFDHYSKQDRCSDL

Structure (SMILES) | IC50 [1] | IC50
COc1ccc(C(=O)NC(=S)Nc2ccc(N3CCN(C)CC3)cc2)cc1[N+](=O)[O-] [Compound C7643] | 0.54 ± 0.03 µM | –
CCN1CCCC1CNC(=O)c1cc([N+](=O)[O-])c(N(C)C)cc1OC (centres unmarked) [Compound C5685] | – | 1.3 ± 0.1 µM
COC(=O)CSc1nc(C)c(C)c(C)c1C#N [Compound C5231] | 36 ± 6.3 µM | –
CCN(CC)CCCNc1c([N+](=O)[O-])c(=O)n(C)c2ccccc12 [Compound C6905] | 2 ± 0.1 µM | –
CCN(CC)CCCNc1oc(-c2ccc(Cl)cc2)nc1C#N [Compound C7491] | 21.4 ± 1.7 µM | –
